Key:
[1] = background statement, no test described; cited from earlier work
[2] = tested on: carrageenin-induced paw oedema; experiment: inhibition of experimentally-induced (carrageenin) paw oedema in rats; format: in vivo; details: rats fasted 18 hours; compound in aqueous 1% tragacanth, 25 ml/kg, 45 min before subplantar 0.1 ml 1% carrageenin; dose not given
Procedure: For this purpose, the well known test for the inhibition of experimentally-induced paw oedema in rats was used. The test was carried out as follows.
The rats are fasted 18 hours prior to dosing, but water is made available to them. Test compounds are then administered in aqueous 1% tragacanth at a dose volume of 25 ml/kg body weight. One group of rats is given vehicle only at the same dose volume. Forty five minutes later, all rats are given a subplantar injection of 0.1 ml of a 1% solution of carrageenin in 0.9% saline in the left hind paw. The volume of this paw is measured before and after the carrageenin injection using a volume differential meter designed by Ugo Basile.
Anti-inflammatory activity is measured as the percentage inhibition of paw oedema in the drug treated animals compared to the controls.

## CCCOc1ccc(CC(=O)O)cc1Cl [4-n-propoxy-3-chloro-phenylacetic acid]
[1]
  anti-inflammatory activity compared with Alclofenac: much reduced anti-inflammatory activity as compared with Alclofenac

## CCCOc1ccc(CC(=O)NCC(=O)O)cc1Cl [Compound 4, 4-n-propoxy-3-chloro-phenylacetyl-glycine]
[2]
  Anti-inflammatory activity (percentage inhibition of paw oedema compared to controls): 35.2%

## C=CCOc1ccc(CC(=O)NCC(=O)O)cc1Cl [Compound 3, 4-allyloxy-3-chloro-phenylacetyl-glycine]
[2]
  Anti-inflammatory activity (percentage inhibition of paw oedema compared to controls): 34.6%

## C=CCOc1ccc(CC(=O)O)cc1Cl [Compound 1, 4-allyloxy-3-chloro-phenylacetic acid, reference compound]
[2]
  Anti-inflammatory activity (percentage inhibition of paw oedema compared to controls): 36.0%

## C=CCOc1ccc(CC(=O)NC(C)C(=O)OC)cc1Cl (racemic) [Compound 2, 4-allyloxy-3-chloro-phenylacetyl-(DL)-alanine methyl ester]
[2]
  Anti-inflammatory activity (percentage inhibition of paw oedema compared to controls): 23.1%
